From publication PMC11148772, “Inhibition of protein translational machinery in triple-negative breast cancer as a promising therapeutic strategy” (Cell Reports Medicine, 2024) come the findings set out here.

The subject of assay [1] is MDA-MB-231 cells. The assay can be described thus: Polysome profiling. The class given is cell-based, human. Conditions: 1 μM, 12 h. As to the method:
1 x 10^6 MDA-MB-231 cells were plated in 100 mm culture plate and allowed to be attached for 24 h. Next day, cells were treated with vehicle or SU056 (1 μM) for 12 h in regular culture medium. Next, cells were incubated with cycloheximide (10 μg/mL) for 5 min at 37°C. Cells were then washed twice in 1x PBS with 10 μg/mL cycloheximide and collected by trypsinization and snap freeze in liquid nitrogen. Cell pellet was lysated in 250 μL polysome lysis buffer (5 mM Tris-HCl [pH 7.4], 1.5 mM KCl, 2.5 mM MgCl2, 0.1 mg/mL cycloheximide, 100 U/mL RNasin, 1× EDTA-free Complete protease inhibitor cocktail, 2 mM DTT, 0.5% Triton X-100, 0.5% deoxycholate). Lysate were quantified taking absorbance at 260 nm using Nanodrop and loaded on a linear 15%–50% sucrose gradient. The gradients were ultracentrifuged SW41Ti rotor (Beckman) for 1 h and 30 min at 180,000 g at 4°C in Beckman Optima LE-80K Ultracentrifuge. The gradients were fractionated in 1 mL volume fractions with continuous monitoring absorbance at 254 nm using an ISCO UA-6 UV detector at Immagina Biotechnology, Pergine, Italy.

Assay [2] has as its target YB-1 (Homo sapiens, UniProt P67809). Nature of the assay: Cellular thermal shift assay (CETSA). Details: endogenous in cells; host or cells: MDA-MB-231. It is filed as binding. To be noted: MDA-MB-231 cells, 1.5 h. As to the method:
MDA-MB-231 cells treated with vehicle control (DMSO) or SU056 were analyzed by CETSA.[53] Cells were grown to 70–80% confluency and then treated with either DMSO (vehicle control) or SU056 (1 μM) for 1.5 h. Cells were then washed twice with PBS and divided into 10 PCR tubes (1 x 10^6 cells/tube in 100 μL PBS). The tubes incubated at different temperatures (37, 41, 44, 47, 50, 53, 56, 59, 63, 67°C) for 3 min in a thermal cycler, followed by 2 min at room temperature. The tubes were snap-frozen in liquid nitrogen, the cells were lysed using a freeze/thaw cycle, and the soluble and insoluble fractions were separated by centrifugation at 14,000 RPM for 30 min at 4°C. […] All samples were analyzed by LC-MS/MS in triplicate.
A Dionex Ultimate Rapid Separation Liquid Chromatography system (Thermo Fisher Scientific) was used to load 3 μL of the combined TMT-labeled peptides onto a PepMap C18 trap column (Thermo Fisher Scientific) with a flow rate set at 5 μL/min for 10 min. […] The flow rate throughout the gradient was set to 0.3 μL/min and each sample was analyzed in triplicates. Eluted peptides were analyzed using an Orbitrap Eclipse Tribrid mass spectrometer (Thermo Fisher Scientific). […] The most abundant precursor ions were subject to collision induced dissociation (CID) with a collisional energy set to […] and detected in the ion trap using Turbo scan rate. […]

Assay [3] has as its system CA1262-PDX-TNBC and MA2821-PDX-TNBC tumors. Nature of the assay: Immunoblot of PDX tumor lysates. The class given is in vivo, mouse. Conditions: daily oral 50 mg/kg for 3 weeks. How it is done: MDA-MB-231, MDA-MB-468, and SUM159 cells were grown to 60–70% confluency and treated with DMSO and SU056 (1 μM) for 12 and 24 h. After the specific treatment time was over, total cell lysates were prepared in non-denaturing lysis buffer. For protein lysate from tumors: randomly selected frozen sample; three from vehicle and SU056 treated group were homogenized in non-denaturing lysis buffer at 4°C for 5 min. 10 μg of protein lysate per sample was resolved on 8–16% SDS-PAGE. Membranes were probed with specific primary antibodies followed by detection with HRP-conjugated appropriate secondary antibodies, visualized by enhanced chemiluminescence detection system, and imaged using an iBright imaging system (Thermo Fisher, USA).
A general note: A western blot detects proteins with antibodies after separation by electrophoresis.

The test system of assay [4] is TNBC cells (MDA-MB-231, MDA-MB-468, SUM159). The assay can be described thus: Immunoblot assay of cell lysates. To be noted: MDA-MB-231 and MDA-MB-468, 1 and 2 μM. The class given is cell-based, human.

The structures appear in SMILES notation.

For the compound `O=C1OCC2=C1C(c1cccc(F)c1)c1cc3c(cc1N2CCO)OCO3` (stereo not drawn) [SU056, 9-(3-fluorophenyl)-5-(2-hydroxyethyl)-6,9-dihydro-[1,3]dioxolo[4,5-g]furo[3,4-b]quinolin-8(5H)-one], in assay [1], the “translational efficiency compared to control cells” value is on record as “reduced translational efficiency”. The “stability of translation-associated proteins (eIFs, RPL, RPS)” value in assay [2] (1 μM) was “increased the overall stability”. The ΔTm at 1 µM in assay [2] came out at 13.8 °C. In assay [3], the “levels of YB-1 and RPL-11 in tumors” value is on record as “decrease”. Moreover, in assay [4], the BCL-2 expression entry is “inhibited” and the Bax expression entry is reported as “induced”.

The ΔTm is the shift of the melting midpoint relative to a reference.
